This is an account of results in PubChem BioAssay (NCI).

Test systems include SN12C renal; MOLT-4 leukemia; RPMI-8226 leukemia; EKVX NSCLC; MDA-MB-435; SW-620 colon; OVCAR-3 ovarian; IGROV1 ovarian; A549 NSCLC; M14 melanoma.
Test in all cases: growth of human tumour cells (NCI), 48 h

Each structure is given as a SMILES string.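 Grown in 96-well plates, cells were treated for 48 hours with each compound at five concentrations. Insufficient inhibition: endpoint recorded as highest concentration tested. GI50 marks 50% less growth. Definition used: TGI = concentration required for complete inhibition of growth.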

As for `CC1=C(SCc2ccccc2)C(=O)c2ccccc2C1=O`, the TGI was 40.3 µM in the test on SN12C renal; 4.51 µM in the test with MOLT-4 leukemia; 7.36 µM in the test with RPMI-8226 leukemia; 44 µM in the test on EKVX NSCLC; 27.9 µM in the test with MDA-MB-435; more than 100 µM with SW-620 colon. The TGI with OVCAR-3 ovarian came out at 23.1 µM; with IGROV1 ovarian, 25.3 µM.
Turning to `COc1ccc(Nc2ccnc(NCCNc3ccnc4cc(Cl)ccc34)n2)cc1`, the GI50 was 3670 nM in the test on A549 NSCLC; 3.73 µM in the test on SN12C renal; 3460 nM with MOLT-4 leukemia; 1550 nM in the test on RPMI-8226 leukemia; 1460 nM in the test with M14 melanoma; 1500 nM with MDA-MB-435. Moreover, the GI50 was 1600 nM in the test on SW-620 colon, 2610 nM in the test on OVCAR-3 ovarian and 1990 nM with IGROV1 ovarian. The TGI in the test with A549 NSCLC was found to be 13.7 µM; with SN12C renal it was 18.4 µM; in the test with MOLT-4 leukemia, 16.2 µM; in the test with RPMI-8226 leukemia, 4.84 µM; in the test with M14 melanoma, 3.41 µM; in the test on MDA-MB-435 it was 2.9 µM. Also, the TGI was determined as 10.2 µM with SW-620 colon, 10.3 µM in the test on OVCAR-3 ovarian and 11 µM with IGROV1 ovarian.
Take `N#Cc1cccc(C(=O)c2cnn(-c3ccc(F)cc3)c2N)c1`: the GI50 in the test with A549 NSCLC is more than 25000 nM; in the test with SN12C renal, more than 25 µM; in the test with MOLT-4 leukemia, more than 25000 nM; with RPMI-8226 leukemia it was more than 25000 nM; in the test on M14 melanoma, more than 25000 nM; with MDA-MB-435, more than 25000 nM. The GI50 in the test with SW-620 colon, in the test with OVCAR-3 ovarian and in the test on IGROV1 ovarian was more than 25000 nM throughout. For the same compound, the TGI in the test with A549 NSCLC, with SN12C renal, with MOLT-4 leukemia, in the test on RPMI-8226 leukemia, in the test on M14 melanoma and in the test on MDA-MB-435 was more than 25 µM each time. Besides, the TGI in the test on SW-620 colon, in the test on OVCAR-3 ovarian and in the test with IGROV1 ovarian was more than 25 µM throughout.
Take `C[N+](C)([O-])CCCNc1c2ccccc2nc2cccc([N+](=O)[O-])c12`: the TGI was 0.795 µM in the test on A549 NSCLC; 1.43 µM in the test on SN12C renal; 0.772 µM in the test with M14 melanoma; 0.901 µM in the test with EKVX NSCLC; 0.647 µM in the test with MDA-MB-435; 5.65 µM in the test with OVCAR-3 ovarian.
Consider `CCOC(=O)c1cc2c(n1Cc1cc(OC)cc(OC)c1)-c1oncc1CCC2`, for which the GI50 in the test on A549 NSCLC was 112 nM; with SN12C renal it was 0.252 µM; in the test with MOLT-4 leukemia, 387 nM; with RPMI-8226 leukemia, 116 nM; with M14 melanoma it was 57 nM; in the test on MDA-MB-435, 31.3 nM. In addition, the GI50 in the test with SW-620 colon was 78.4 nM; in the test on OVCAR-3 ovarian, 27.4 nM; with IGROV1 ovarian, 73.2 nM. The TGI in the test with A549 NSCLC was more than 100 µM; in the test on SN12C renal, more than 100 µM; with MOLT-4 leukemia it was more than 100 µM; in the test on RPMI-8226 leukemia, more than 33.7 µM; in the test on M14 melanoma, more than 100 µM; in the test with MDA-MB-435, 0.112 µM. Besides, the TGI was more than 100 µM in the test with SW-620 colon, 0.0889 µM in the test with OVCAR-3 ovarian and more than 100 µM in the test with IGROV1 ovarian.
Take `O=Nc1c(-c2cccc([N+](=O)[O-])c2)nc2cnccn12`: the TGI is 83.8 µM in the test on A549 NSCLC; 59.7 µM in the test with SN12C renal; 27.6 µM in the test on MOLT-4 leukemia; 42 µM in the test with M14 melanoma; more than 100 µM with EKVX NSCLC; 43.1 µM in the test with MDA-MB-435. Also, the TGI in the test on SW-620 colon worked out at 35.7 µM; with OVCAR-3 ovarian it was 37.4 µM; in the test on IGROV1 ovarian it was 38.6 µM.
In the case of `Nc1c(C(=O)c2cccc(-c3ccc[n+]([O-])c3)c2)cnn1-c1ccc(F)cc1F`, the GI50 in the test with A549 NSCLC is more than 25000 nM; in the test on SN12C renal, more than 25 µM; in the test with MOLT-4 leukemia, more than 25000 nM; in the test on RPMI-8226 leukemia it was more than 25000 nM; in the test on M14 melanoma, more than 25000 nM; in the test with MDA-MB-435, 15200 nM. The GI50 in the test on SW-620 colon, with OVCAR-3 ovarian and in the test on IGROV1 ovarian was more than 25000 nM in each case. The TGI in the test with A549 NSCLC, with SN12C renal, in the test on MOLT-4 leukemia, in the test on RPMI-8226 leukemia, in the test on M14 melanoma and with MDA-MB-435 was more than 25 µM in each case. Further, the TGI in the test with SW-620 colon, with OVCAR-3 ovarian and in the test with IGROV1 ovarian was more than 25 µM in each case.
Turning to `CSc1ccc(-c2cc(-c3ccc(NC(=O)CCCN4CCCC4)cc3)nc(-c3ccc(NC(=O)CCCN4CCCC4)cc3)c2)cc1`, the GI50 with A549 NSCLC was 1670 nM; with SN12C renal it was 3.46 µM; in the test with MOLT-4 leukemia it was 1790 nM; with RPMI-8226 leukemia it was 2160 nM; with M14 melanoma it was 4230 nM; in the test with MDA-MB-435, 1680 nM. For the same compound, the GI50 in the test with SW-620 colon was 1790 nM; in the test with OVCAR-3 ovarian, 3970 nM; in the test with IGROV1 ovarian, 10300 nM. For the same compound, the TGI was 3.17 µM with A549 NSCLC; 17.1 µM in the test with SN12C renal; 3.62 µM in the test with MOLT-4 leukemia; 4.56 µM with RPMI-8226 leukemia; 17.4 µM in the test with M14 melanoma; 3.06 µM with MDA-MB-435. Moreover, the TGI in the test on SW-620 colon was found to be 3.29 µM; in the test with OVCAR-3 ovarian it was 14.6 µM; in the test with IGROV1 ovarian, 33.8 µM.
On to `c1cc(C2CCCCC2)ccc1OCCCCCCN1CCNCC1`, for which the GI50 was 1920 nM in the test with A549 NSCLC; 1.79 µM with SN12C renal; 1980 nM in the test with M14 melanoma; 5.76 µM with EKVX NSCLC; 1640 nM in the test with MDA-MB-435; 1780 nM with SW-620 colon. For the same compound, the GI50 in the test with OVCAR-3 ovarian was 1820 nM; in the test on IGROV1 ovarian it was 2040 nM. Besides, the TGI stood at 3.65 µM with A549 NSCLC; 3.54 µM with SN12C renal; 4.33 µM in the test with M14 melanoma; 47.3 µM in the test on EKVX NSCLC; 3.12 µM in the test with MDA-MB-435; 3.4 µM with SW-620 colon. The TGI in the test on OVCAR-3 ovarian came out at 3.57 µM; in the test on IGROV1 ovarian, 3.89 µM.
